As a reminder, the IC50 is the midpoint of a concentration-inhibition curve. Lower therefore signals greater potency in that assay.

For three substances, IC50 results are on record in patent publication US8476303B2, “N-aminopyrrolylmethyltetrahydropyridines as anti-cancer agents” (Florida A&M University Board of Trustees, priority 2011, dated 2013).

Common to all, as to assay type: cell-based
For one assay, the system named is Ishikawa cells. As to the kind of experiment: CELLTITER-GLO luminescent cell viability assay, Ishikawa. To be noted: 72 h at 37° C. As to the method:
(§1) The derivatives were examined for their cytotoxic effects on MCF-7 estrogen receptor-positive breast cancer cells, MDA-MB-231 estrogen receptor-negative breast cancer cell line, and Ishikawa cells, using the CELLTITER-GLO (CTG)® luminescent cell viability assay. All the compounds are tested in the three cell lines. Different concentration of compounds, ranging from about 0.01 nM to about 100,000 nM were delivered to 5×10^3 cells per well, which were then incubated for three days at 37° C., followed by the CTG assay.
(§2) Compounds Redda-GM-2-50, Redda-GM-2-55, and Redda-GM-2-58 were tested for their cytotoxic effects on MCF-7 estrogen receptor-positive breast cancer cells, MDA-MB-231 estrogen receptor-negative breast cancer cell line, and Ishikawa cells, using the CELLTITER-GLO® luminescent cell viability assay (Promega, Madison, Wis.) following the manufacturer's instruction.
(§3) CELLTITER-GLO® is a homogeneous method based on the quantification of ATP, which is an indicator of metabolically active cells. In this assay, the number of viable cells in culture is determined based on the quantification of ATP present, which signals the presence of metabolically active cells. Damaged cells are not detected as the ATP leaked from these cells is quickly consumed by ATPases that are also released upon damage). The amount of ATP is determined using a system based on luciferase and D-luciferin resulting in light generation.
(§4) The cell lines were plated in 13, 96 well plates at a density of 5000 cells/well in total volumes of 50 μL in phenol-red free medium and incubated for overnight. […]
(§5) Drug-exposed cells were incubated or 72 h at 37° C. in a 5% CO2 incubator, after which the plates were removed for CELLTITER-GLO® assay and equilibrated at room temperature for 30 min. […] Luminescence results were read on TriLux Luminometer. […] Data were expressed as percentage of untreated control (i.e. treatment value-blank/vehicle value blank), mean±SE for three replications.

The test system of assay [1] is MDA-MB-231 estrogen receptor-negative breast cancer cell line. As to the kind of experiment: CELLTITER-GLO luminescent cell viability assay, MDA-MB-231. To be noted: MDA-MB-231 cells, 72 h at 37° C. The method, then:
as §1, §2, §3, §4, §5

Assay [2] deals with MCF-7 estrogen receptor-positive breast cancer cells. Put plainly: CELLTITER-GLO luminescent cell viability assay, MCF-7. The settings on record: MCF-7 cells, 72 h at 37° C. As to the method: as §1, §2, §3, §4, §5
(In general: ATP-based viability assays read luminescence as a measure of living cells.)

Regarding “3-((1H-pyrrol-1-yl)methyl)-1-(4-methoxyphenylsulfonamido)pyridinium Ylide [Redda-GM-2-58]”, the IC50 in the assay on Ishikawa cells was 28 µM; in assay [1], 53 µM; in assay [2] it was 49 µM.

“3-((1H-pyrrol-1-yl)methyl)-1-(4-methylphenylsulfonamido)pyridinium Ylide [Redda-GM-2-55]”: the IC50 in the assay on Ishikawa cells is 78.5 µM; in assay [1], 83.6 µM; in assay [2], 31.8 µM.

For “3-((1H-pyrrol-1-yl)methyl)-1-(phenylsulfonimido)pyridinium Ylide [Redda-GM-2-50]”, the IC50 in the assay on Ishikawa cells is 28 µM; in assay [1] it was 44 µM; in assay [2], 47 µM.
